One assay has as its target MAP2K1 (MEK1) (Homo sapiens, UniProt Q02750). The experiment in a line: FRET-based coupled-enzyme protein kinase inhibition assay. Type of assay: biochemical. As to conditions: compound at 10 µM, 1% DMSO. In short, it runs like this:
(§1)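 FRET peptide (coumarin donor, fluorescein acceptor) was phosphorylated by each kinase in 50 mM HEPES pH 7.5, 10 mM MgCl2, 1 mM EDTA, 0.01% BRIJ-35 for 60 min at room temperature. ATP was at apparent Km, compounds in 1% DMSO. Protease development reagent then cleaved non-phosphorylated peptide over 60 min.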

The target of a further assay is T1, JAK3 (Homo sapiens, UniProt P52333).
T1 sequence (P52333 1-1124): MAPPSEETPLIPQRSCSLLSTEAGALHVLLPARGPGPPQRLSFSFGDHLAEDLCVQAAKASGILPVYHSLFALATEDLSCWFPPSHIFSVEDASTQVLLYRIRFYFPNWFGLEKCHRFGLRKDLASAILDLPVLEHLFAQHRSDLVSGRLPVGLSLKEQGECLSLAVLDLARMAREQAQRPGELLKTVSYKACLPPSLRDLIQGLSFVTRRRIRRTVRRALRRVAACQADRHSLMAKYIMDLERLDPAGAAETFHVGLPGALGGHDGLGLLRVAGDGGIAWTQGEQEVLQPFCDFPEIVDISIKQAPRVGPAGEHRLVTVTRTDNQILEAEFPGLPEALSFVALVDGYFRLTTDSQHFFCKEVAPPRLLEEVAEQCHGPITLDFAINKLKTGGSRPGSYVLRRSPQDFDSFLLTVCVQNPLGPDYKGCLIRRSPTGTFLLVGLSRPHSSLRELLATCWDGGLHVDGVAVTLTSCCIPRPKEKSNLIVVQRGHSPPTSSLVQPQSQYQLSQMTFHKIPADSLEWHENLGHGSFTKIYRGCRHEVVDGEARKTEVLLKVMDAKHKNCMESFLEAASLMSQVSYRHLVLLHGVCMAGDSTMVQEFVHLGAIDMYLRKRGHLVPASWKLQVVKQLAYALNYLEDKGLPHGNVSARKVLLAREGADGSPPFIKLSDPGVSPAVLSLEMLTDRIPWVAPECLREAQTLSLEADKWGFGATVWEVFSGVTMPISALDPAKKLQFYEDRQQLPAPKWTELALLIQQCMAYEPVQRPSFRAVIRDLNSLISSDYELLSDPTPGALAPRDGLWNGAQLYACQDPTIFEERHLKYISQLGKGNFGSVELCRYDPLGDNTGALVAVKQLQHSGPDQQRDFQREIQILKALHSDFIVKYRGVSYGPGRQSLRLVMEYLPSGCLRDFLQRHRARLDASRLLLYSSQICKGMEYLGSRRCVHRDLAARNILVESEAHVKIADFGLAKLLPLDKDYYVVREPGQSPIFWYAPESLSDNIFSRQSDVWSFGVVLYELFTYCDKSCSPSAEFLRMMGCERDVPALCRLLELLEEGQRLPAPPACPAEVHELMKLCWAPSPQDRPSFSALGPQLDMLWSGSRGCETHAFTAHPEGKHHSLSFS
Described as above. As to conditions: compound at 10 µM, 1% DMSO. The class given is biochemical. In short, it runs like this: as §1

What is called inhibition is the drop in the measured response relative to a control, in per cent.

Chain of MAP2K1 (MEK1) (Q02750 whole entry, species assumed): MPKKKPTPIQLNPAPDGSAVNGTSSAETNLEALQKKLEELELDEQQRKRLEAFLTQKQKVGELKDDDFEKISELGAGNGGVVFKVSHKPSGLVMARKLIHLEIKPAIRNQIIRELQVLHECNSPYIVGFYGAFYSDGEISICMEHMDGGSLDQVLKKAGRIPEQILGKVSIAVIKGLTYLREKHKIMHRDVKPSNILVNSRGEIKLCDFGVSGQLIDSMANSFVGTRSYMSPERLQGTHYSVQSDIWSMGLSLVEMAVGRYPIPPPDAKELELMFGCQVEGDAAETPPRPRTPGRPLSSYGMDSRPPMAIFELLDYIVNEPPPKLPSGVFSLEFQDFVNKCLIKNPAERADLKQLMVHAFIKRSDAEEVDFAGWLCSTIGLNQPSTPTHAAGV

On to `Nc1ncnc2c1ncn2[C@@H]1O[C@H](COC(=O)NCCCc2nc3ccccc3[nH]2)[C@@H](O)[C@H]1O` [Compound C1], for which the inhibition at 10 µM is 11% on MAP2K1 (MEK1) and -2% at JAK3.

With `C[C@@H](NC(=O)OC[C@H]1O[C@@H](n2cnc3c(N)ncnc32)[C@H](O)[C@@H]1O)c1ccc(Cl)cc1` [Compound C4], the inhibition at 10 µM was 4% on MAP2K1 (MEK1) and 6% on JAK3.

As to `Nc1ncnc2c1ncn2[C@@H]1O[C@H](COC(=O)NC[C@H](O)CO)[C@@H](O)[C@H]1O` [Compound C8], the results for the inhibition at 10 µM against MAP2K1 (MEK1) and on JAK3 were 10% and -2%, respectively.

Take `Nc1ncnc2c1ncn2[C@@H]1O[C@H](COC(=O)N2CCC[C@H]2CO)[C@@H](O)[C@H]1O` [Compound C9]: the inhibition at 10 µM is -3% against MAP2K1 (MEK1) and -8% against JAK3.

Turning to `Nc1ncnc2c1ncn2[C@@H]1O[C@H](COC(=O)N[C@@H]2CCN(Cc3ccccc3)C2)[C@@H](O)[C@H]1O` [Compound C10], the inhibition at 10 µM against MAP2K1 (MEK1) was 0%; against JAK3, -2%.

As for `Nc1ncnc2c1ncn2[C@@H]1O[C@H](COC(=O)N2CCN(Cc3ccccc3)CC2CO)[C@@H](O)[C@H]1O` (some centres unmarked) [Compound C13], the inhibition at 10 µM against MAP2K1 (MEK1) and on JAK3 was 1% each time.

Regarding `CC(C)N1CCC(NC(=O)OC[C@H]2O[C@@H](n3cnc4c(N)ncnc43)[C@H](O)[C@@H]2O)CC1` [Compound C19], the inhibition at 10 µM against MAP2K1 (MEK1) and against JAK3 was -2% throughout.

Consider `Nc1ncnc2c1ncn2[C@@H]1O[C@H](COC(=O)NCCN2CCCC2=O)[C@@H](O)[C@H]1O` [Compound C22], for which the inhibition at 10 µM was -3% on MAP2K1 (MEK1) and -8% on JAK3.

In the case of `Nc1ncnc2c1ncn2[C@@H]1O[C@H](COC(=O)N2CCN(CCc3ccccc3)CC2)[C@@H](O)[C@H]1O` [Compound C26], the inhibition at 10 µM on MAP2K1 (MEK1) is 4%; against JAK3, -7%.

Turning to `CN1CCN(CCNC(=O)OC[C@H]2O[C@@H](n3cnc4c(N)ncnc43)[C@H](O)[C@@H]2O)CC1` [Compound C46], the inhibition at 10 µM at MAP2K1 (MEK1) was -1%; against JAK3, 2%.

With `Nc1ncnc2c1ncn2[C@@H]1O[C@H](COC(=O)N2CCC(Cc3ccc(F)cc3)C2)[C@@H](O)[C@H]1O` (some centres unmarked) [Compound C66], the inhibition at 10 µM was -1% against MAP2K1 (MEK1) and 0% at JAK3.

With `N#CCCN1CCN(C(=O)OC[C@H]2O[C@@H](n3cnc4c(N)ncnc43)[C@H](O)[C@@H]2O)CC1` [Compound C70], the inhibition at 10 µM was 3% against MAP2K1 (MEK1) and -8% at JAK3.

For the compound `CN(C)CCNC(=O)OC[C@H]1O[C@@H](n2cnc3c(N)ncnc32)[C@H](O)[C@@H]1O` [Compound C85], the inhibition at 10 µM against MAP2K1 (MEK1) is -3%; against JAK3, -12%.

Take `Nc1ncnc2c1ncn2[C@@H]1O[C@H](COC(=O)N2CCN(C(=O)N3CCOCC3)CC2)[C@@H](O)[C@H]1O` [Compound C89]: the values for the inhibition at 10 µM at MAP2K1 (MEK1) and at JAK3 were -2% and 2%, respectively.

With `CS(=O)(=O)N1CC2(CCN(C(=O)OC[C@H]3O[C@@H](n4cnc5c(N)ncnc54)[C@H](O)[C@@H]3O)CC2)c2ccccc21` [Compound C98], the inhibition at 10 µM against MAP2K1 (MEK1) was 4%; against JAK3, -1%.

On to `Nc1ncnc2c1ncn2[C@@H]1O[C@H](COC(=O)N2CCS(=O)(=O)CC2)[C@@H](O)[C@H]1O` [Compound C100], for which the inhibition at 10 µM against MAP2K1 (MEK1) is 5%; against JAK3, -2%.

Values taken from EP3212201B1, “NUCLEOSIDE KINASE INHIBITORS” (BCI Pharma, priority 2014, dated 2016).
